Measurements as given in patent US8686126B2, “HBV drug resistance methods” (priority 2002, dated 2014).

Test system: HBsAg
Assay: Serum levels of HBsAg by modified Laurell electrophoresis in HBV-infected patient No. 7
Format: in vivo
Details: lamivudine treatment, just after breakthrough virus emerged
Protocol: HBsAg, anti-HBs, HBeAg, anti-HBe, and anti-HCV were determined by the microparticle enzyme-immunoassay ([…]) method (Abbott Laboratories, North Chicago, Ill., US). Anti-HDV enzyme-immunoassay method was performed as per the methodology supplied by the manufacturer (Abbott Laboratories, North Chicago, Ill., US). Serum levels of HBsAg were determined by a modified Laurell electrophoresis system (Gerlich et al., 1975). HBV-DNA levels were tested by using a commercial liquid-hybridization assay (Digene, Maryland, US), with the lower limit of detection of this assay 5 pg/mL of viral DNA.
The HBsAg level of the patient was 1.19 μg/mL at the beginning of the lamivudine treatment and became undetectable after 4 months.

**Q.** With `Nc1ccn([C@@H]2CS[C@H](CO)O2)c(=O)n1` [lamivudine, beta-L-(−)-2′,3′-dideoxy-3′-thiacytidine] as the compound, how does the HBsAg level read?
**A.** 10.8 µg/mL
